Test results from patent US20260374739A1, “SMALL MOLECULAR WEIGHT CHEMICAL COMPOUND TO ANTAGONIZE EPH-EPHRIN TETRAMERIZATION AND INHIBIT BIDIRECTIONAL SIGNALING” (THE BOARD OF REGENTS OF THE UNIVERSITY OF TEXAS SYSTEM, priority 2022, published 2026).
pIC50: −log10 of the molar value. “Also recorded” adds a separate entry of the source.

Experiments:
[1] = molecular target: EphrinB3-EphB2 (Homo sapiens, UniProt P29323); experiment: Octet, immobilized human EphrinB3 binding to human EphB2
Protocol: (§1) Studies were conducted to confirm that A20 chemicals can effectively target the human Eph/Ephrin proteins. Octet system was used to first characterize the biophysical interactions of the human B class Eph and Ephrin proteins, and then was tested to assess how A20 may disrupt the interactions. Since the human and rodent proteins are highly conserved, and essentially identical, with EphB2 sharing 99.5% identity between human and mouse, with only 5 of ~1,000 amino acids different, any species-specific differences were not anticipated. Therefore, commercially available human EphrinB1-Fc (EB1), EphrinB2-Fc (EB2), and EphrinB3-Fc (EB3) ectodomain proteins were sparsely immobilized onto biosensors and then exposed to 50 nM of soluble human EphB1-His, EphB2-His, and EphB4-His ectodomains for 800 sec association and 1,000 sec dissociation steps with a total of nine different interactions analyzed. In the absence of A20 chemical, the immobilized human EphrinB proteins bound to their appropriate human EphB target proteins; with EphrinB1 only bound EphB1 and EphB2, EphrinB2 bound all three EphB1, EphB2, and EphB4, and EphrinB3 only bound EphB1 and EphB2 (FIG. 19A-19B).
(§2) Addition of compound also altered dissociation kinetics. […] This is referred to as the “unsurmountable” component of the Eph-Ephrin interaction (FIG. 21C). Additionally, AUC data was graphed for these runs (FIG. 21D). […]

[2] = molecular target: T1, EphB1-Fc / EB2-His (Rattus norvegicus, UniProt P09759); experiment: pulldown EB2-His to EphB1-Fc; type: binding, mouse EB2; conditions: 50 and 250 μM for A20; listed as A20
T1 construct: mouse (Mus musculus) EB2-His ectodomain, pulldown
T1 sequence (P09759 18-538): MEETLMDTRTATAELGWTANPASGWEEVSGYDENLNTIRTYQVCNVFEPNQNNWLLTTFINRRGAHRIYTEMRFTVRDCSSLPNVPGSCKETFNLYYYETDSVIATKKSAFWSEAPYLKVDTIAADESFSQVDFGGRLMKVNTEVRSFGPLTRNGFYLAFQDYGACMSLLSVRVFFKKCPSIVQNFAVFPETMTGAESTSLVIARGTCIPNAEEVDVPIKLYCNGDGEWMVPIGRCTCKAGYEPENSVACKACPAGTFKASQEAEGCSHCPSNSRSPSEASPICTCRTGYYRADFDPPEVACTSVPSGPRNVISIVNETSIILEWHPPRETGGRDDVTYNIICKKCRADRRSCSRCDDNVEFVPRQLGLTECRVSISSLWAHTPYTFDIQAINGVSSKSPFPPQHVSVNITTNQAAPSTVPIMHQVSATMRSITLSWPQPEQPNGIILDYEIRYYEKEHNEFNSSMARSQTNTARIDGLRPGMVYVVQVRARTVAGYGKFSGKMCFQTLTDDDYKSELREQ
Source text: A20, E13, and other compounds from the top 32 hits were then characterized in pulldown assays. EphB1-Fc was immobilized onto Protein A agarose beads, then mixed with compounds and the soluble EB2-His ectodomain for 1 hr at RT, after which protein complexes were washed and then bound EB2 was detected by immunoblot using anti-His antibodies.

[3] = system: EphB2 tyrosine kinase, Cos1 cells; experiment: EphB2 kinase activation by pre-clustered EB2-Fc in Cos1 cells, immunoblot; type: cell-based; conditions: 30 min, listed as A20
Protocol: To assess if A20 would reduce the ability of EphrinB2 to stimulate activation of the EphB tyrosine kinase domain in live cells, Cos1 cells that express endogenous EphB2 were exposed to pre-clustered EB2-Fc ectodomains in the presence or absence of A20 for 30 min. […] Stimulated cells were fixed on the coverslip and subjected to immunofluorescence (IF) with anti-Fc antibodies to detect ligand protein bound to receptor, which leads to formation of circular Eph-Ephrin tetramers that then cluster into large obvious spots on the cell surface by lateral migration through the plasma membrane and also contain anti-phosphotyrosine signal indicating activation of the receptor's kinase domain.

[4] = molecular target: T2, EphB2-His-Fc / EB2-His (Mus musculus, UniProt P54763); experiment: pulldown EB2-His to EphB2-His-Fc; type: binding
T2 construct: a dual-tagged EphB2-His-Fc ectodomain protein; mouse EB2-His residues 18-232; purchased R&D Systems (EphB-Fc); Sino Biologicals (EphrinB-His)
T2 sequence (P54763 19-543 limits assumed): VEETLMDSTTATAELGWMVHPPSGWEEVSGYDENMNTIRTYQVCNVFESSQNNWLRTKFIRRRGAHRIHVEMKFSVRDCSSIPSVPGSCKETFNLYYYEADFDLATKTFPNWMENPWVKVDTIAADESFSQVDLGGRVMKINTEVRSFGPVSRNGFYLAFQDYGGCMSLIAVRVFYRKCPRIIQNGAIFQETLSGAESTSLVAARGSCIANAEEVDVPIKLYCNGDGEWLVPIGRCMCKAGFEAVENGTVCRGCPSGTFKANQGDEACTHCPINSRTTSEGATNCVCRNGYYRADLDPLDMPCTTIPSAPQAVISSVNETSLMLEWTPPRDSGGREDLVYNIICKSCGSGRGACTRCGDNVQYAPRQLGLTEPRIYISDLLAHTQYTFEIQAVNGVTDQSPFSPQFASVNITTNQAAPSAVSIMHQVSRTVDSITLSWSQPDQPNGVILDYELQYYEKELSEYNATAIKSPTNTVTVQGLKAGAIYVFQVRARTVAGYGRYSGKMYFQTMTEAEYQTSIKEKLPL

[5] = molecular target: EphrinB1-EphB2 (Homo sapiens, UniProt P29323); experiment: Octet, immobilized human EphrinB1 binding to human EphB2
Chain of EphrinB1-EphB2 (P29323 19-543 limits assumed): as the sequence (P54763 19-543 limits assumed) above, with L104S, N154S, K520Q counted along it
Protocol: as §1, §2

[6] = system: CFA-induced mechanical pain in mice; experiment: CFA inflammatory pain, mechanical; type: in vivo, mouse; conditions: IP or PO 20 mg/kg
Protocol: The week prior to injection of CFA, adult mice (>10 weeks age, male or female) were first acclimated to the chambers used in pain assessments and then their left and right hind paws were subjected to thermal (heat) and mechanical (touch) pain measurements to obtain baseline data. Mechanical pain was assessed by placing mice on a wire grid and repeatably testing hind paws for their sensitivity to von Frey (VF) filaments of different stiffnesses with the mechanical withdrawal threshold for each mouse hind paw defined as the minimum gauge filament needed to elicit a reflex. Thermal pain was assessed by placing mice on a glass surface and subjecting their hind paws to an infrared heat source (Hargreaves device) that is connected to a timer to measure how long the animal takes to notice the heat and lift the paw. In these tests, both hind paws of mice were subjected to multiple measurements over a 2-3 hr period to (1) either narrow down the VF filament stiffness threshold to plot the touch pain or (2) to obtain six good thermal response measurements which are averaged to provide the data points for heat pain. […] A total of 12 mice were assessed in any one experiment. […]

[7] = read-out: concentration producing maximum inhibition

Chain of EphrinB3-EphB2 (P29323 19-543 limits assumed): as the sequence (P54763 19-543 limits assumed) above, with L104S, N154S, K520Q counted along it

SMILES: Oc1c(Br)cc(CN2CCOCC2)c2cccnc12 [Compound 5, 7-bromo-5-(morpholinomethyl)quinolin-8-ol]
- inhibition at 1 µM ([1]; EB3-EphB2, A20, read-out: reduction of tetramers): ~45%
- IC (maximum) [1, 7]: 1 µM
- pulldown EB2-His binding to EphB1-Fc [2]: strongly reduced EB2-His binding to EphB1-Fc; also recorded: reduces the ability of soluble EB2-His to bind to immobilized EphB1-Fc
- EphB2 kinase activity [3]: caused a dose-dependent reduction in EphB2 kinase activity; also recorded: antagonizes EB2 stimulation of EphB2 catalytic activity
- pulldown EphB2 binding to EB2-His [4]: strong dose-dependent ability to antagonize EphB2-His-Fc protein binding to EB2-His
- pIC50 ([4]; pulldown, EphB2): ~5.00
- inhibition at 1 µM ([5]; EB1-EphB2, A20, read-out: reduction of tetramers): ~45%
- IC (maximum) [5, 7]: 1 µM
- mechanical pain [6]: no increased sensitivity to the VF filaments on average
- mechanical pain ratio ([6]; vehicle 2-3): 1
